Experimental data as given in patent US20210393807A1, “PHOTOACOUSTIC VOLTAGE-SENSITIVE DYES FOR IN VIVO IMAGING” (The Johns Hopkins University, priority 2016, published 2021).
Several values for one entry are separate records, joined by “and”; a condition that tells them apart may be missing. Identical values can stand only once.

Experiments:
rat brain [1] = experiment: PA recording of neural activity index during NMDA infusion; format: in vivo, Sprague Dawley rats
Text: (§1) 3.1.1 Animal preparation. For the in vivo experiments, 8-9-week-old male Sprague Dawley rats weighing 275-390 g were used (Charles Rivers Laboratory, Inc., MA, United States). The use of animals for the proposed experimental protocol was approved by the Institutional Research Board Committee of Johns Hopkins Medical Institute (RA16M225). The hair was shaved from the scalp of each rat for improved optical/acoustic coupling for transcranial PA recording. The head of the anesthetized rat was fixed to a stable position using a standard stereotaxic device. This fixation procedure was required to prevent any unpredictable movement during PA recording of neural activities.
3.1.3 In vivo experimental protocol. The in vivo protocol was designed to have two different phases: baseline and NMDA infusion (FIG. 22B). PA data acquisition was continuously performed for 40 min to be correlated with the glutamate concentration change measured by microdialysis with 20-min intervals. The baseline phase was designed to confirm its stable neural activity before the NMDA infusion. […]

rat brain [2] = experiment: Microdialysis of extracellular glutamate during NMDA infusion; format: in vivo, Sprague Dawley rats; conditions: NMDA infusion phase, 0.3-mM NMDA via microdialysis probe; baseline phase 0.557 μM
Text: as §1
3.1.2 Microdialysis setup. The microdialysis probe consists of a shaft with a semipermeable hollow membrane tip, which is connected to inlet and outlet tubing. The extracellular fluid samples were continuously acquired before and after the infusion of 0.3-mM NMDA through the inlet of the microdialysis probe (FIG. 22A). Each acquisition of extracellular fluid sample took 20 min with 2 μL/min flow rate. From the samples, the change of glutamate concentration was measured.
3.1.3 In vivo experimental protocol. […] PA data acquisition was continuously performed for 40 min to be correlated with the glutamate concentration change measured by microdialysis with 20-min intervals. […]

CN[C@H](CC(=O)O)C(=O)O [NMDA]
increase of neural activity index estimated by PA recording (rat brain [1]; 30 min of NMDA infusion, after VSD and Lexiscan administration): up to 3.27 times
time at which the increase of index is saturated (rat brain [1]; from the start of NMDA infusion): 10 to 15 min
extracellular glutamate concentration (rat brain [2]): 0.000643 mM and 0.000648 mM
